Data as given in US20090048258A1, “Amide Compound” (priority 2005, published 2009).

These compounds were tested against T1, Human DGAT1 (Homo sapiens, UniProt O75907) (assay: DGAT inhibitory activity: [14C]-triglyceride synthesis by DGAT1 high expression Sf9 microsome). Settings: Table 1, 25 μM dioleoylglycerol, 25 μM [14C]-Oleoyl-CoA, 32° C., 15 min, read-out: DGAT inhibitory activity (according to IC50).
T1 construct: my translation of the primer: M-G-DYKDDDD-GDRGSSRRR) (N); made in house; host or cells: Sf9 insect cells (recombinant baculovirus BAC-DGAT1, pFASTBAC1); microsome fraction
T1 sequence (O75907 1-488): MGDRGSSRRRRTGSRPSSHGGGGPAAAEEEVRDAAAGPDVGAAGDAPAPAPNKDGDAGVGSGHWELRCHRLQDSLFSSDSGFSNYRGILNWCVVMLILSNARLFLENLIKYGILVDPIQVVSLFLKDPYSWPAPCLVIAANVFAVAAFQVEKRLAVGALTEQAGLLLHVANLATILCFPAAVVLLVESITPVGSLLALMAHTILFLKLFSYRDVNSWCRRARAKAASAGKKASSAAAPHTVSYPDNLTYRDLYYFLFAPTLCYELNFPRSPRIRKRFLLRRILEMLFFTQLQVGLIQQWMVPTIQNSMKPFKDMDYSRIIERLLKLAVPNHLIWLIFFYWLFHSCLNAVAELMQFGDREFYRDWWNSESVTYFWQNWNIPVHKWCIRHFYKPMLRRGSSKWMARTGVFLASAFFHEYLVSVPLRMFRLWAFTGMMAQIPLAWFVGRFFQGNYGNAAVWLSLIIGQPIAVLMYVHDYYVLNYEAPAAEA
Format: biochemical
Method: The primer base sequence is shown below.
The PCR reaction was conducted using a KOD-plus kit (TOYOBO). The obtained PCR product was electrophoresed on agarose gel (1%), the DNA fragment amplified by PCR was recovered from the gel, and then digested with restriction enzymes EcoRI and SpeI. […] Furthermore, using BAC-TO-BAC Baculovirus Expression System (Invitrogen), recombinant baculovirus BAC-DGAT1 was prepared.
SF9 cells were sown at 1×10^6 cells/ml on Sf-900II SEM medium (1 L, Invitrogen) containing 10% fetal calf serum (Trace), 50 mg/L gentamicin (Invitrogen) and 0.1% Pluronic F-68 (Invitrogen), and shaking culture was performed using a 2 L volume Erlenmeyer at 27° C., 100 rpm. After culturing for 24 hr, recombinant baculovirus BAC-DGAT1 (6.7 mL) was added, and the mixture was further cultured for 3 days. The culture medium was centrifuged at 2,000 rpm for 5 min to give virus-infected cells. The infected cells were washed with a phosphate buffered saline (Invitrogen), centrifuged under the same conditions, and the cells were preserved at −80° C. The cryopreserved cells were thawed in ice, suspended in buffer A (50 mM Tris buffer (30 mL, pH 7.4) containing 20% glycerol, 0.15 M NaCl) supplemented with Complete Protease Inhibitor (Boehringer), and ruptured 3 times with a Polytron homogenizer (Kinematica) at 20,000 rpm for 30 sec. The Sf9 microsome fractions were obtained by a conventional method and cryopreserved at −80° C. as a DGAT1 high expression Sf9 microsome.
As a DGAT1 reaction buffer, a solution having a composition of 100 mM Tris-HCl (pH 7.5), 250 mM sucrose, 150 mM MgCl2, 0.01% bovine serum albumin (BSA) was used. […] A mixture of 300 μL of chloroform:methanol (=1:2) was added to the reaction mixture to quench the reaction. The reaction mixture was sufficiently mixed and saline (200 μL) was added to partition the mixture between a chloroform layer (lower layer) and an aqueous layer (upper layer). The chloroform layer (50 μL) was spotted on a thin layer chromatography silica gel plate (TLC plate, Merck) and developed with a solvent (n-hexane:diethyl ether:ethyl acetate:acetic acid=74:15:15:1). The developed TLC plate was dried, contacted with a BAS imaging plate (manufactured by FUJIFILM) and measured with BAS2500 (manufactured by FUJIFILM) 16 hr later to numerically show the amount of [^14C]-triglyceride (TG amount) produced during the reaction. The inhibitory rate was calculated by the following formula:
Inhibitory rate (%)=(1−(TG amount in the case with addition of test compound−blank TG amount)/(control TG amount−blank TG amount))×100
The count of the triglyceride produced in the solution reacted without addition of the test compound was used as a “control TG amount”, and the count of the triglyceride produced in the solution reacted without addition of the test compound and DGAT1 high expression Sf9 microsome was used as a “blank TG amount”.

| SMILES | IC50 |
| --- | --- |
| O=C(CCC(=O)c1ccc(O)cc1)Nc1nc(-c2ccccc2)c(Cc2ccccc2)s1 [Example 33, N-(5-benzyl-4-phenyl-1,3-thiazol-2-yl)-4-(4-hydroxyphenyl)-4-oxobutanamide] | 50 to 500 nM |
| COc1cc2c(cc1C(=O)CCC(=O)Nc1nc(-c3ccccc3)c(Cc3ccccc3)s1)CCCC2 [Example 29, N-(5-benzyl-4-phenyl-1,3-thiazol-2-yl)-4-(3-methoxy-5,6,7,8-tetrahydronaphthalen-2-yl)-4-oxobutanamide] | 10 to 50 nM |
| CCOc1ccc(C(=O)CCC(=O)Nc2cc(-c3ccccc3)c(Cc3ccccc3)s2)cc1OCC [Example 17, N-(5-benzyl-4-phenyl-2-thienyl)-4-(3,4-diethoxyphenyl)-4-oxobutanamide] | 10 to 50 nM |
| O=C(CCC(=O)c1ccc2c(c1)CCO2)Nc1cc(-c2ccccc2)c(Cc2ccccc2)s1 [Example 49, N-(5-benzyl-4-phenyl-2-thienyl)-4-(2,3-dihydro-1-benzofuran-5-yl)-4-oxobutanamide] | 10 to 50 nM |
| CCOC(=O)c1sc(NC(=O)CCC(=O)c2ccc(OCC)c(OCC)c2)cc1-c1ccccc1 [Example 52, ethyl 5-{[4-(3,4-diethoxyphenyl)-4-oxobutanoyl]amino}-3-phenylthiophene-2-carboxylate] | 50 to 500 nM |
| CCOc1ccc(C(=O)CCC(=O)Nc2cc(-c3ccccc3)nc(-c3ccccc3)n2)cc1OCC [Example 14, 4-(3,4-diethoxyphenyl)-N-(2,6-diphenylpyrimidin-4-yl)-4-oxobutanamide] | 50 to 500 nM |
| CCOc1ccc(C(=O)CCC(=O)Nc2nc(-c3ccccc3)c(Cc3ccccc3)s2)cc1Br [Example 25, N-(5-benzyl-4-phenyl-1,3-thiazol-2-yl)-4-(3-bromo-4-ethoxyphenyl)-4-oxobutanamide] | ≤ 10 nM |
| CCOc1ccc(C(=O)NCCNC(=O)c2cc(-c3ccccc3)n(-c3ccc(OC(F)(F)F)cc3)c2C)cc1 [Example 62, N-{2-[(4-ethoxybenzoyl)amino]ethyl}-2-methyl-5-phenyl-1-[4-(trifluoromethoxy)phenyl]-1H-pyrrole-3-carboxamide] | 50 to 500 nM |
| CCOC(=O)Cc1ccc(C(=O)CCC(=O)Nc2nc(-c3ccccc3)c(Cc3ccccc3)s2)cc1 [Example 34] | 50 to 500 nM |
| COc1cc2c(cc1OC)C(=O)[C@H](CC(=O)Nc1nc(-c3ccccc3)c(Cc3ccccc3)s1)C2 (stereo in doubt) [Example 6, N-(5-benzyl-4-phenyl-1,3-thiazol-2-yl)-2-(5,6-dimethoxy-1-oxo-2,3-dihydro-1H-inden-2-yl)acetamide] | 10 to 50 nM |
| O=C(CCC(=O)c1ccc2c(c1)CCO2)Nc1nc(-c2ccccc2)c(Cc2ccccc2)s1 [Example 27, N-(5-benzyl-4-phenyl-1,3-thiazol-2-yl)-4-(2,3-dihydro-1-benzofuran-5-yl)-4-oxobutanamide] | ≤ 10 nM |
| CCOc1ccc(C(=O)CCC(=O)Nc2cc(-c3ccccc3)sc2-c2ccccc2)cc1 [Example 60, N-(2,5-diphenyl-3-thienyl)-4-(4-ethoxyphenyl)-4-oxobutanamide] | 500 to 10000 nM |

Same assay, conditions: Table 2, 25 μM dioleoylglycerol, 25 μM [14C]-Oleoyl-CoA, 32° C., 15 min, read-out: DGAT inhibitory activity (according to IC50)

| SMILES | IC50 |
| --- | --- |
| O=C(O)/C=C/c1cccc(-c2cc(NC(=O)CCC(=O)c3ccc4c(c3)CCO4)nc(-c3ccccc3)c2)c1 [Example 174, (2E)-3-[3-(2-{[4-(2,3-dihydro-1-benzofuran-5-yl)-4-oxobutanoyl]amino)-6-phenylpyridin-4-yl)phenyl]acrylic acid] | 500 to 10000 nM |
| COc1ccccc1-c1cc(NC(=O)CCC(=O)c2ccc3c(c2)CCO3)nc(-c2ccccc2)c1 [Example 178, 4-(2,3-dihydro-1-benzofuran-5-yl)-N-[4-(2-methoxyphenyl)-6-phenylpyridin-2-yl]-4-oxobutanamide] | 10 to 50 nM |
| CCOc1ccc(C(=O)CCC(=O)Nc2cc(-c3cccc(CCC(=O)OC)c3)cc(-c3ccccc3)n2)cc1OCC [Example 142, methyl 3-[3-(2-{[4-(3,4-diethoxyphenyl)-4-oxobutanoyl]amino}-6-phenylpyridin-4-yl)phenyl]propanoate] | 50 to 500 nM |
| CCOc1cc(C)c(C(=O)CCC(=O)Nc2cc(-c3ccccc3)c3cc(Cl)ccc3n2)cc1OCC [Example 73, N-(6-chloro-4-phenylquinolin-2-yl)-4-(4,5-diethoxy-2-methylphenyl)-4-oxobutanamide] | 50 to 500 nM |
| CCOc1ccc(C(=O)CCC(=O)Nc2cc(-c3ccccc3O)cc(-c3ccccc3)n2)cc1OCC [Example 145, 4-(3,4-diethoxyphenyl)-N-[4-(2-hydroxyphenyl)-6-phenylpyridin-2-yl]-4-oxobutanamide] | ≤ 10 nM |
| CCc1ccc(C(=O)CCC(=O)Nc2nc(-c3ccccc3)c(Cc3ccccc3)s2)s1 [Example 72, N-(5-benzyl-4-phenyl-1,3-thiazol-2-yl)-4-(5-ethyl-2-thienyl)-4-oxobutanamide] | 10 to 50 nM |
| Cn1cc(-c2cc(NC(=O)CCC(=O)c3ccc4c(c3)CCO4)nc(-c3ccccc3)c2)cn1 [Example 153, 4-(2,3-dihydro-1-benzofuran-5-yl)-N-[4-(1-methyl-1H-pyrazol-4-yl)-6-phenylpyridin-2-yl]-4-oxobutanamide] | 500 to 10000 nM |
| O=C(CCC(=O)c1ccc2c(c1)CCO2)Nc1cc(-c2ccc3[nH]ccc3c2)cc(-c2ccccc2)n1 [Example 154, 4-(2,3-dihydro-1-benzofuran-5-yl)-N-[4-(1H-indol-5-yl)-6-phenylpyridin-2-yl]-4-oxobutanamide] | 10 to 50 nM |
| CCOc1ccc(C(=O)CCC(=O)Nc2cc(-c3cccc(OC)c3)cc(-c3ccccc3)n2)cc1OCC [Example 106, 4-(3,4-diethoxyphenyl)-N-[4-(3-methoxyphenyl)-6-phenylpyridin-2-yl]-4-oxobutanamide] | 50 to 500 nM |
| CCOc1ccc(C(=O)CCC(=O)Nc2cc(-c3ccccc3)c3ccc(/C=C/C(=O)O)cc3n2)cc1OCC [Example 83, (2E)-3-(2-{[4-(3,4-diethoxyphenyl)-4-oxobutanoyl]amino}-4-phenylquinoline-7-yl)acrylic acid] | 50 to 500 nM |
| CCOC(=O)c1c(NC(=O)CCC(=O)c2ccc(OCC)c(OCC)c2)sc(Cc2ccccc2)c1-c1ccccc1 [Example 96, ethyl 5-benzyl-2-{[4-(3,4-diethoxyphenyl)-4-oxobutanoyl]amino}-4-phenylthiophene-3-carboxylate] | 50 to 500 nM |
| O=C(CCC(=O)c1ccc2c(c1)CCO2)Nc1cc(-c2cccc(O)c2)cc(-c2ccccc2)n1 [Example 165, 4-(2,3-dihydro-1-benzofuran-5-yl)-N-[4-(3-hydroxyphenyl)-6-phenylpyridin-2-yl]-4-oxobutanamide] | 10 to 50 nM |
| O=C(O)CCc1cccc(-c2cc(NC(=O)CCC(=O)c3ccc4c(c3)CCO4)nc(-c3ccccc3)c2)c1 [Example 172, 3-[3-(2-{[4-(2,3-dihydro-1-benzofuran-5-yl)-4-oxobutanoyl]amino}-6-phenylpyridin-4-yl)phenyl]propanoic acid] | 500 to 10000 nM |
| CCOc1ccc(C(=O)CCC(=O)Nc2cn(-c3ccccc3)nc2-c2ccc(F)cc2)cc1OCC [Example 108, 4-(3,4-diethoxyphenyl)-N-[3-(4-fluorophenyl)-1-phenyl-1H-pyrazol-4-yl]-4-oxobutanamide] | 50 to 500 nM |
| CCOc1ccc(C(=O)CCC(=O)Nc2cc3ccccc3c(-c3ccccc3)n2)cc1OCC [Example 84, 4-(3,4-diethoxyphenyl)-4-oxo-N-(1-phenylisoquinolin-3-yl)butanamide] | 500 to 10000 nM |
